pIC50: −log10 of the molar value.
Biological target: T1, SF9 affinity purified rat FPT (Rattus norvegicus, UniProt Q02293+Q04631)
T1 construct: made in house; host or cells: Sf9 insect cells
Assay: PFT (FPT) inhibitory activity assay, radiolabeled farnesyl pyrophosphate and biotinyl peptide, streptavidin beads
Type: biochemical
Settings: HEPES buffer pH 7.4, 30° C., 30 minutes; read-out: FTase IC50
In short: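 Rat FPT expressed in SF9 cells was incubated 30 minutes at 30° C. with compound (in 10% DMSO), radiolabeled farnesyl pyrophosphate and biotinylated peptide. Buffer: HEPES pH 7.4, ZnCl2 20 μM, MgCl2 and DTT 5 mM each, 0.1% PEG 8000, 5 mM potassium phosphate (also run without phosphate). Product captured on streptavidin beads in magnesium acetate/H3PO4 stop buffer.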

Q: O=C(NCc1ccco1)c1ccc(S(=O)(=O)Cc2c(O[C@H](Cn3ccnc3)c3ccccc3)ccc3c2CCCC3=O)cc1 [Compound 229, N-(2-Furylmethyl)-4-{[(2-{[(1S)-2-(1H-imidazol-1-yl)-1-phenylethyl]oxy}-5-oxo-5,6,7,8-tetrahydro-1-naphthalenyl)methyl]sulfonyl}benzamide] was tested. Which pIC50 did it give?
A: Its pIC50 is 9.26.

Q: How did the pIC50 turn out when O=C(NCc1ccco1)c1cccc(S(=O)(=O)Cc2c(O[C@H](Cn3ccnc3)c3ccccc3)ccc3c2CCCC3=O)c1 [Compound 230, N-(2-Furylmethyl)-3-{[(2-{[(1S)-2-(1H-imidazol-1-yl)-1-phenylethyl]oxy}-5-oxo-5,6,7,8-tetrahydro-1-naphthalenyl)methyl]sulfonyl}benzamide] was run?
A: Its pIC50 is 9.70.

Q: How did the pIC50 turn out when O=C(NCc1ccco1)c1ccccc1S(=O)(=O)Cc1c(O[C@H](Cn2ccnc2)c2ccccc2)ccc2c1CCCC2=O [Compound 231, N-(2-Furylmethyl)-2-{[(2-{[(1S)-2-(1H-imidazol-1-yl)-1-phenylethyl]oxy}-5-oxo-5,6,7,8-tetrahydro-1-naphthalenyl)methyl]sulfonyl}benzamide] was run?
A: Its pIC50 is 9.70.

Q: With O=C(NC(CO)CO)c1ccccc1SCc1c(O[C@H](Cn2ccnc2)c2ccccc2)ccc2c1CCCC2=O [Compound 232, N-[2-Hydroxy-1-(hydroxymethyl)ethyl]-2-{[(2-{[(1S)-2-(1H-imidazol-1-yl)-1-phenylethyl]oxy}-5-oxo-5,6,7,8-tetrahydro-1-naphthalenyl)methyl]sulfanyl}benzamide] as the molecule, how does the pIC50 read?
A: The pIC50 was 9.70.

Q: How did the pIC50 turn out when O=C(NC(CO)CO)c1ccc(SCc2c(O[C@H](Cn3ccnc3)c3ccccc3)ccc3c2CCCC3=O)cc1 [Compound 233, N-[2-Hydroxy-1-(hydroxymethyl)ethyl]-4-{[(2-{[(1S)-2-(1H-imidazol-1-yl)-1-phenylethyl]oxy}-5-oxo-5,6,7,8-tetrahydro-1-naphthalenyl)methyl]sulfanyl}benzamide] was run?
A: Its pIC50 is 9.35.

Q: How did the pIC50 turn out when O=C(NC(CO)CO)c1cccc(SCc2c(O[C@H](Cn3ccnc3)c3ccccc3)ccc3c2CCCC3=O)c1 [Compound 234, N-[2-Hydroxy-1-(hydroxymethyl)ethyl]-3-{[(2-{[(1S)-2-(1H-imidazol-1-yl)-1-phenylethyl]oxy}-5-oxo-5,6,7,8-tetrahydro-1-naphthalenyl)methyl]sulfanyl}benzamide] was run?
A: Its pIC50 is 9.60.

Q: O=C(NC(CO)CO)c1ccc(S(=O)(=O)Cc2c(O[C@H](Cn3ccnc3)c3ccccc3)ccc3c2CCCC3=O)cc1 [Compound 235, N-[2-Hydroxy-1-(hydroxymethyl)ethyl]-4-{[(2-{[(1S)-2-(1H-imidazol-1-yl)-1-phenylethyl]oxy}-5-oxo-5,6,7,8-tetrahydro-1-naphthalenyl)methyl]sulfonyl}benzamide] was tested. Which pIC50 did it give?
A: Its pIC50 is 7.82.

Q: With O=C(NC(CO)CO)c1cccc(S(=O)(=O)Cc2c(O[C@H](Cn3ccnc3)c3ccccc3)ccc3c2CCCC3=O)c1 [Compound 236, N-[2-Hydroxy-1-(hydroxymethyl)ethyl]-3-{[(2-{[(1S)-2-(1H-imidazol-1-yl)-1-phenylethyl]oxy}-5-oxo-5,6,7,8-tetrahydro-1-naphthalenyl)methyl]sulfonyl}benzamide] as the molecule, how does the pIC50 read?
A: Its pIC50 is 9.70.

Q: With O=C(NC(CO)CO)c1ccccc1S(=O)(=O)Cc1c(O[C@H](Cn2ccnc2)c2ccccc2)ccc2c1CCCC2=O [Compound 237, N-[2-Hydroxy-1-(hydroxymethyl)ethyl]-2-{[(2-{[(1S)-2-(1H-imidazol-1-yl)-1-phenylethyl]oxy}-5-oxo-5,6,7,8-tetrahydro-1-naphthalenyl)methyl]sulfonyl}benzamide] as the molecule, how does the pIC50 read?
A: Its pIC50 is 9.55.

Q: O=C(NCc1ccco1)c1ccc(SCc2c(O[C@H](Cn3ccnc3)c3ccccc3)ccc3c2CCCC3=O)cc1 [Compound 238, N-(2-Furylmethyl)-4-{[(2-{[(1S)-2-(1H-imidazol-1-yl)-1-phenylethyl]oxy}-5-oxo-5,6,7,8-tetrahydro-1-naphthalenyl)methyl]sulfanyl}benzamide] was tested. Which pIC50 did it give?
A: The pIC50 was 9.70.

Q: How did the pIC50 turn out when O=C(NCc1ccco1)c1cccc(SCc2c(O[C@H](Cn3ccnc3)c3ccccc3)ccc3c2CCCC3=O)c1 [Compound 239, N-(2-Furylmethyl)-3-{[(2-{[(1S)-2-(1H-imidazol-1-yl)-1-phenylethyl]oxy}-5-oxo-5,6,7,8-tetrahydro-1-naphthalenyl)methyl]sulfanyl}benzamide] was run?
A: The pIC50 was 9.52.

Q: How did the pIC50 turn out when O=C(NCc1ccco1)c1ccccc1SCc1c(O[C@H](Cn2ccnc2)c2ccccc2)ccc2c1CCCC2=O [Compound 240, N-(2-Furylmethyl)-2-{[(2-{[(1S)-2-(1H-imidazol-1-yl)-1-phenylethyl]oxy}-5-oxo-5,6,7,8-tetrahydro-1-naphthalenyl)methyl]sulfanyl}benzamide] was run?
A: Its pIC50 is 9.70.

Q: How did the pIC50 turn out when CC[C@H](CO)NC(=O)c1ccc(S(=O)(=O)Cc2c(O[C@H](Cn3ccnc3)c3ccccc3)ccc3c2CCCC3=O)cc1 [Compound 241, N-[(1R)-1-(Hydroxymethyl)propyl]-4-{[(2-{[(1S)-2-(1H-imidazol-1-yl)-1-phenylethyl]oxy}-5-oxo-5,6,7,8-tetrahydro-1-naphthalenyl)methyl]sulfonyl}benzamide] was run?
A: Its pIC50 is 9.59.

Q: How did the pIC50 turn out when CC[C@H](CO)NC(=O)c1cccc(S(=O)(=O)Cc2c(O[C@H](Cn3ccnc3)c3ccccc3)ccc3c2CCCC3=O)c1 [Compound 242, N-[(1R)-1-(Hydroxymethyl)propyl]-3-{[(2-{[(1S)-2-(1H-imidazol-1-yl)-1-phenylethyl]oxy}-5-oxo-5,6,7,8-tetrahydro-1-naphthalenyl)methyl]sulfonyl}benzamide] was run?
A: The pIC50 was 9.70.

Q: How did the pIC50 turn out when CC[C@H](CO)NC(=O)c1ccccc1S(=O)(=O)Cc1c(O[C@H](Cn2ccnc2)c2ccccc2)ccc2c1CCCC2=O [Compound 243, N-[(1R)-1-(Hydroxymethyl)propyl]-2-{[(2-{[(1S)-2-(1H-imidazol-1-yl)-1-phenylethyl]oxy}-5-oxo-5,6,7,8-tetrahydro-1-naphthalenyl)methyl]sulfonyl}benzamide] was run?
A: Its pIC50 is 9.70.

Q: CC[C@H](CO)NC(=O)c1ccccc1SCc1c(O[C@H](Cn2ccnc2)c2ccccc2)ccc2c1CCCC2=O [Compound 244, N-[(1R)-1-(Hydroxymethyl)propyl]-2-{[(2-{[(1S)-2-(1H-imidazol-1-yl)-1-phenylethyl]oxy}-5-oxo-5,6,7,8-tetrahydro-1-naphthalenyl)methyl]sulfanyl}benzamide] was tested. Which pIC50 did it give?
A: Its pIC50 is 9.70.

Q: CC[C@H](CO)NC(=O)c1ccc(SCc2c(O[C@H](Cn3ccnc3)c3ccccc3)ccc3c2CCCC3=O)cc1 [Compound 245, N-[(1R)-1-(Hydroxymethyl)propyl]-4-{[(2-{[(1S)-2-(1H-imidazol-1-yl)-1-phenylethyl]oxy}-5-oxo-5,6,7,8-tetrahydro-1-naphthalenyl)methyl]sulfanyl}benzamide] was tested. Which pIC50 did it give?
A: Its pIC50 is 9.70.

Q: How did the pIC50 turn out when CC[C@H](CO)NC(=O)c1cccc(SCc2c(O[C@H](Cn3ccnc3)c3ccccc3)ccc3c2CCCC3=O)c1 [Compound 246, N-[(1R)-1-(Hydroxymethyl)propyl]-3-{[(2-{[(1S)-2-(1H-imidazol-1-yl)-1-phenylethyl]oxy}-5-oxo-5,6,7,8-tetrahydro-1-naphthalenyl)methyl]sulfanyl}benzamide] was run?
A: The pIC50 was 9.70.

Q: How did the pIC50 turn out when CC[C@H](C)CNC(=O)c1ccc(S(=O)(=O)Cc2c(O[C@H](Cn3ccnc3)c3ccccc3)ccc3c2CCCC3=O)cc1 [Compound 247, 4-{[(2-{[(1S)-2-(1H-Imidazol-1-yl)-1-phenylethyl]oxy}-5-oxo-5,6,7,8-tetrahydro-1-naphthalenyl)methyl]sulfonyl}-N-[(2S)-2-methylbutyl]benzamide] was run?
A: The pIC50 was 9.70.

Q: CC[C@H](C)CNC(=O)c1cccc(S(=O)(=O)Cc2c(O[C@H](Cn3ccnc3)c3ccccc3)ccc3c2CCCC3=O)c1 [Compound 248] was tested. Which pIC50 did it give?
A: Its pIC50 is 9.70.

Q: How did the pIC50 turn out when CC[C@H](C)CNC(=O)c1ccccc1S(=O)(=O)Cc1c(O[C@H](Cn2ccnc2)c2ccccc2)ccc2c1CCCC2=O [Compound 249] was run?
A: The pIC50 was 9.60.

Q: CC[C@H](C)CNC(=O)c1ccccc1SCc1c(O[C@H](Cn2ccnc2)c2ccccc2)ccc2c1CCCC2=O [Compound 250, 2-{[(2-{[(1S)-2-(1H-Imidazol-1-yl)-1-phenylethyl]oxy}-5-oxo-5,6,7,8-tetrahydro-1-naphthalenyl)methyl]sulfanyl}-N-[(2S)-2-1-methylbutyl]benzamide] was tested. Which pIC50 did it give?
A: The pIC50 was 9.70.

Q: With CC[C@H](C)CNC(=O)c1ccc(SCc2c(O[C@H](Cn3ccnc3)c3ccccc3)ccc3c2CCCC3=O)cc1 [Compound 251, 4-{[(2-{[(1S)-2-(1H-Imidazol-1-yl)-1-phenylethyl]oxy}-5-oxo-5,6,7,8-tetrahydro-1-naphthalenyl)methyl]sulfanyl}-N-[(2S)-2-methylbutyl]benzamide] as the molecule, how does the pIC50 read?
A: Its pIC50 is 9.70.

Q: CC[C@H](C)CNC(=O)c1cccc(SCc2c(O[C@H](Cn3ccnc3)c3ccccc3)ccc3c2CCCC3=O)c1 [Compound 252, 3-{[(2-{[(1S)-2-(1H-Imidazol-1-yl)-1-phenylethyl]oxy}-5-oxo-5,6,7,8-tetrahydro-1-naphthalenyl)methyl]sulfanyl}-N-[(2S)-2-methylbutyl]benzamide] was tested. Which pIC50 did it give?
A: Its pIC50 is 9.70.

Q: CC(O)CNC(=O)c1ccc(S(=O)(=O)Cc2c(O[C@H](Cn3ccnc3)c3ccccc3)ccc3c2CCCC3=O)cc1 (stereo partly drawn) [Compound 253, N-(2-Hydroxypropyl)-4-{[(2-{[(1S)-2-(1H-imidazol-1-yl)-1-phenylethyl]oxy}-5-oxo-5,6,7,8-tetrahydro-1-naphthalenyl)methyl]sulfonyl}benzamide] was tested. Which pIC50 did it give?
A: The pIC50 was 9.15.

Q: CC(O)CNC(=O)c1cccc(S(=O)(=O)Cc2c(O[C@H](Cn3ccnc3)c3ccccc3)ccc3c2CCCC3=O)c1 (stereo partly drawn) [Compound 254, N-(2-Hydroxypropyl)-3-{[(2-{[(1S)-2-(1H-imidazol-1-yl)-1-phenylethyl]oxy}-5-oxo-5,6,7,8-tetrahydro-1-naphthalenyl)methyl]sulfonyl}benzamide] was tested. Which pIC50 did it give?
A: Its pIC50 is 9.00.

Q: CC(O)CNC(=O)c1ccccc1S(=O)(=O)Cc1c(O[C@H](Cn2ccnc2)c2ccccc2)ccc2c1CCCC2=O (stereo partly drawn) [Compound 255] was tested. Which pIC50 did it give?
A: Its pIC50 is 9.70.
